Laboratory results reported in patent publication EP4483904A1, “POLYOXOMETALATES AS MEMBRANE CARRIERS” (Universität Wien, priority 2023, dated 2025).
pEC50: −log10 of the molar value. Several values for one entry are separate records, joined by “and”; a condition that tells them apart may be missing. Equal values may be shown once. Read-outs that look alike come from different tables or passages of the source.

Assay: Transport experiments in CF-loaded zwitterionic EYPC vesicles (CF fluorescence, Hill analysis)
Format: biochemical
Details: for cargo transport in CF-loaded vesicles (qualitative): LUVs loaded with CF, added cargo; for onset for transport activity (carrier concentration): vesicles, Fig. 4
Protocol: The dry film was rehydrated with 1 mL buffer (50 mM CF, 10 mM Hepes, pH 7.4 or 50 mM CF, 10 mM Tris, pH 7.4) for 30 min at room temperature, subjected to freeze-thaw cycles (7 times) and extrusions (15 times) through a polycarbonate membrane (pore size 100 nm). Extravesicular components were removed by size exclusion chromatography (NAP-25 column Sephadex G-25 DNA grade) with 10 mM Hepes, 107 mM NaCl, pH 7.4 or 10 mM Hepes, 107 mM NaCl, pH 7.4. Phospholipid concentration was calculated by the Stewart assay. […]
Vesicles stock solutions (5-10 µL) were diluted with the corresponding buffer in a disposable plastic cuvette and gently stirred (total volume 2000 µL, final lipid concentration 13 µM). […] Fluorescence intensities were normalized to fractional emission as: I(t) = (It −I0)/(I∞ −I0) [formula]
Where I0 = It before POM addition and […] = I∞ after lysis. For Hill analysis, It before lysis was defined as transport activity, Y, and plotted against POM concentration, c, and fitted to the Hill equation (2), to afford the activity in absence of POM, Y0, the maximal activity, Ymax, the concentration needed to achieve 50 % of maximal activity, EC50, and the Hill coefficient, n. Y = Y0 + (Ymax −Y0)/(1 + (((EC50)/(c)))^n) [formula]
In the transport measurements, where different carriers (POMs) are tested with the same cargo, the activator efficiency (E) is determined by their capacity to transport the impermeable cargo to the intravesicular region and is characterized by Ymax, its maximal activity, and EC50, the effective activator concentration. An ideal carrier reaches high Ymax at low EC50. To count both factors, the activator efficiency is defined as: E = Ymax (pEC50)/(f) [formula] were pEC50 is the negative logarithm of the EC50, and fa scaling factor, which was set to 20.6 to calibrate the highest (previously known) activation efficiency, E, as 10.
The capability of POMs to act as membrane carriers was explored first in large unilamellar vesicles (LUVs), loaded with carboxyfluorescein (CF). We selected […] representative cationic peptides, heptaarginine (heptaArg), heptalysine (heptaLys), protamine, and polyarginine (polyArg), as test cargos. Inside the LUVs, the CF dye was encapsulated at self-quenching concentrations. With a suitable carrier, heptaArg can be taken up into the vesicles, bind with entrapped CF, and shuttle back to the exterior, spreading the previously quenched CF, and thereby restoring its fluorescence (Fig. 3). In the time-resolved fluorescence experiments, to test whether a POM acts as molecular carrier, the CF emission was continuously monitored during the addition of the inorganic carrier (t = 60 s) and after injection the impermeable heptaArg (t = 120 s). At the end of the experiment (t = 600 s), the surfactant Triton X-100 was added to release all the entrapped CF and allow normalization of the intensity data (Fig. 4a).

[1] = EYPC (zwitterionic), 13 µM phospholipids, 10 µM heptaLys
[2] = EYPC (zwitterionic), 13 µM phospholipids, 10 µM heptaLys, read-out: EC50
[3] = EYPC vesicles, 0.1 µM polyArg, neutral pH 7.4
[4] = EYPC vesicles, 0.1 µM polyArg, neutral pH 7.4, read-out: PolyArg EC50
[5] = EYPC vesicles, 1 µM protamine, neutral pH 7.4
[6] = EYPC vesicles, 1 µM protamine, neutral pH 7.4, read-out: Protamine EC50
[7] = EYPC vesicles, 10 µM heptaArg, neutral pH 7.4, E = Ymax(pEC50/f), f = 20.6
[8] = EYPC vesicles, 10 µM heptaArg, neutral pH 7.4, read-out: HeptaArg EC50
[9] = EYPC vesicles, 0.1 µM polyArg, acidic pH 5.5
[10] = EYPC vesicles, 1 µM Protamine, acidic pH 5.5

Substance | E (activation efficiency) [1] | Ymax [1] [%] | pEC50 [2] | PolyArg E (activation efficiency) [3] | PolyArg Ymax [3] [%] | pEC50 [4] | Protamine E (activation efficiency) [5] | Protamine Ymax [5] [%] | pEC50 [6] | HeptaArg E (activation efficiency) [7] | pEC50 [8] | cargo transport in CF-loaded vesicles (qualitative) | onset for transport activity (carrier concentration) | further results
K4[α-P^VV^VW^VI11O40]·4H2O [[PVW11]^4-] | 4.3 | 62 | 4.42 | 8.2 | 88 | 4.92 | 5.9 | 88 | 4.39 | 5.3 | 4.31 | triggered the desired increase in fluorescence characteristic for cargo transport | around 1 µM | –
K4[α-Si^IVMo^VIW^VI11O40]·24H2O [[SiMoW11]^4-] | 4.4 | 54 | 4.66 | 8.6 | 94 | 4.89 | 6.0 | 72 | 4.72 | 5.7 | 4.78 and 4.77 | triggered the desired increase in fluorescence characteristic for cargo transport | around 1 µM | PolyArg E (activation efficiency) [9]: 9.7; PolyArg Ymax [9]: 86%; pEC50 (EYPC vesicles, 0.1 µM polyArg, acidic pH 5.5, read-out: PolyArg EC50): 5.30; Protamine E (activation efficiency) [10]: 7.3; Protamine Ymax [10]: 80%; pEC50 (EYPC vesicles, 1 µM Protamine, acidic pH 5.5, read-out: Protamine EC50): 4.85; HeptaArg E (activation efficiency) (EYPC vesicles, 10 µM heptaArg, acidic pH 5.5): 6.6; HeptaArg Ymax (EYPC vesicles, 10 µM heptaArg, acidic pH 5.5 (10 mM Mes, 107 mM NaCl)): 66%; HeptaArg Ymax (EYPC vesicles, 10 µM heptaArg, neutral pH 7.4): 66%
